Results as given in patent US8187821B2, “Compositions and methods for the modulation of PGRMC1” (University of Utah Research Foundation, priority 2008, dated 2012).
Several values for one entry are separate records, joined by “and”; a condition that tells them apart may be missing. Equal values may be shown once. Read-outs that look alike come from different tables or passages of the source.

Tests used:
[1] = molecular target: T1, His10-PGRMC1 (Homo sapiens, UniProt O00264); assay: Coupled time-course proteolysis experiment (protease-sensitive vs protease-resistant specific binding); conditions: trypsin after ligand incubation, FIG. 10
T1 construct: a product containing the full length coding region of PGMRC1 flanked by Nde1 and BamHI restriction sites; made in house; host or cells: E. coli BL21 (DE3) / BL21 codon plus (RIPL); purified bacterial membranes
T1 sequence (O00264 whole entry): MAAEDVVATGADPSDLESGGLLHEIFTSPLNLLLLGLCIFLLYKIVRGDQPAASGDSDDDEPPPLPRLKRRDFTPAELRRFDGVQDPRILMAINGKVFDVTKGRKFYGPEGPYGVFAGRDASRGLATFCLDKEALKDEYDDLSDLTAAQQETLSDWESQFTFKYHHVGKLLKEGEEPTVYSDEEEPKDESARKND
Description: (§1) Since data from the competition assays indicate that progesterone and cholesterol bind to the same site within His10-PGRMC1 (His10 disclosed as SEQ ID NO: 14), the reason for the observation of more cholesterol binding in our assays was examined. There appear to be two plausible explanations: one possibility is that there are more cholesterol-specific binding sites on His10-PGRMC1 (His10 disclosed as SEQ ID NO: 14) that comprise the increase in observed binding; the other is that His10-PGRMC1 (His10 disclosed as SEQ ID NO: 14) is catalyzing the incorporation of cholesterol into the membrane. To distinguish between these possibilities, a coupled time-course proteolysis experiment was performed. In these studies, [^3H] progesterone and [^3H] cholesterol were incubated with membranes ±His10-PGRMC1 (His10 disclosed as SEQ ID NO: 14) for increasing time periods. At the end of the incubation period, the membranes were isolated, washed, and resuspended in a trypsin solution to remove all His10-PGRMC1 (His10 disclosed as SEQ ID NO: 14) protein. In this manner any ligand specifically bound to His10-PGRMC1 (His10 disclosed as SEQ ID NO: 14) would be protease-sensitive and be removed from the membrane fraction. Any ligand incorporated into the membrane or other protected site will be protease-resistant and remain in the membrane fraction. After proteolysis the reactions were separated by centrifugation into protease-resistant (membrane) and protease-sensitive (supernatant) fractions and ligand amount determined. […] Total specific binding of progesterone (FIG. 10A, diamonds) increasing over time and occurring at levels consistent with previous studies was observed. […] It is important to note that this ligand incorporation reaction is specific to bound cholesterol as it was observed that all bound progesterone was protein associated. Collectively our findings describe an important and previously uncharacterized function for PGRMC1 and sterol binding proteins in general, that of catalyzing the incorporation of cholesterol into membranes.

[2] = system: His10-PGRMC1; assay: as above; set-up: species or system human; conditions: trypsin after ligand incubation, FIG. 10
Description: as §1

[3] = molecular target: T1, His10-PGRMC1; assay: PGRMC1 binding assay: [^3H] ligand binding to purified bacterial membranes expressing His10-PGRMC1 (+PGRMC1); conditions: for Membrane-Associated [^3H] Ligand / Kd / Q1 / Q2: +PGRMC1 membranes; for Membrane-Associated [^3H] Ligand, Specific: Specific (+PGRMC1 minus −PGRMC1); for saturability of specific binding: ligand concentration spanning four orders of magnitude, FIG. 8; for His10-PGRMC1 specific binding with proteolyzed membranes: membranes trypsin-treated prior to ligand binding; for ligand bound at saturation/equilibrium in time course: 37° C; for ligand bound at saturation/equilibrium in time course / time to reach saturation/equilibrium of binding: FIG. 5, time course; for Q1: number of non-specific sites; for Q2: number of specific sites
Description: For bacterial expression, BL21 (DE3) cells (Stratagene, LaJolla, Calif.) were transformed with pET-16b:PGRMC1 and plated on LB agar plates containing ampicillin (amp). One to 7 days later, individual colonies were harvested and used to inoculate small volume (5-200 mL) liquid cultures of LB-amp media. Cultures were grown with shaking at 37° C. until early log phase (OD600=0.6). IPTG was added to a final concentration of […] and the cultures were incubated for another 4 hours at 37° C. or overnight at room temperature. His10-PGRMC1 (His10 disclosed as SEQ ID NO: 14) expression was confirmed by SDS-PAGE followed by Coomassie stain and western blot using mouse monoclonal anti-tetra-His (SEQ ID NO: 15) antibody (Qiagen, Valencia, Calif.).
IPTG-induced cells were harvested by centrifugation (5,000 rpm; 5 min) and washed with ice-cold H2O. The pellet was resuspended in 5 mL buffer A (50 mM Tris-HCl pH 7.5, 150 mM NaCl, 0.1% NP40, and 10% glycerol) with 5-10 mg lysozyme, and incubated on ice for 30 min. The cells were then disrupted by three bursts of sonication (45 sec) at high intensity with a 45 sec cooling period between bursts. Soluble material was removed by centrifugation (15,000 rpm, 10 min) and the pellet resuspended in 5 mL buffer A. His10-PGRMC1 (His10 disclosed as SEQ ID NO: 14) was confirmed to be present in purified membranes by SDS-PAGE followed by Coomassie stain and western blot using anti-tetra-His (SEQ ID NO: 15) antibody (Qiagen). Total protein in the His10-PGRMC1 (His10 disclosed as SEQ ID NO: 14) transformed and untransformed purified membranes was determined by the Bradford method and membranes were normalized to 10 μg/μL total protein (diluted with buffer A). Purified membranes were then aliquoted and stored frozen until use.
The standard 10 μL binding reaction contained 10 μp purified membranes (total protein) and 10 μM [^3H] progesterone or [^3H] cholesterol (3,000-5,000 cpm) in buffer A: 20% ethanol. Stock solutions (100 μM) of [^3H] cholesterol and [^3H] progesterone containing ˜4×10^4 cpm/μL, were prepared in 95% ethanol. Reactions were prepared in clear 2.0 mL microcentrifuge tubes on ice. To start the reaction, the microfuge tube was briefly mixed (vortex) and placed at 37° C. Following a 10 to 30 min incubation, the tubes were centrifuged in a microfuge (˜13,000 rpm) for 2 min. The supernatant was carefully removed and the pellet was washed with an additional 10 μL water. After a second round of centrifugation (2 min; 13,000 rpm), the resulting supernatant was combined with the first and the pellet was resuspended in 20 μL H2O, Scintillation fluid (700 μL Wallac Optiflour) was added to each fraction and the fractions were mixed extensively. The fractions were then counted in a multi-well scintillation counter (Wallac Microbeta Triluxmax, Waltham, Mass.) for 30 seconds each. Binding are reported as μ/moles of ligand bound per mg of membrane protein. His10-PGRMC1 (His10 disclosed as SEQ ID NO: 14)-specific binding is reported as the difference in binding between transformed and untransformed bacteria. Experimental deviations from the standard assay conditions are noted in individual figure legends.
In order to better understand PGRMC1's biological function and to study ligand binding, an in vitro binding assay was developed. E. coli BL21 codon plus (RIPL) cells were transformed with a vector encoding PGRMC1 that was epitope tagged with 10 histidine (SEQ ID NO: 14) residues at the NH2-terminus. Untransformed BL21 cells were used as the control. A purification procedure was performed to remove soluble proteins and cell components from the transformed (+PGRMC1) and untransformed (−PGRMC1) bacterial membranes. The resulting purified membranes were confirmed for the presence and absence of His10-PGRMC1 (His10 disclosed as SEQ ID NO: 14) respectively by Coomassie stain and western blot using anti-His antibody. The membranes with [^3H] progesterone or [^3H] cholesterol were then incubated. […]

[4] = Protease + (trypsin before ligand binding)
[5] = two binding site model fit of saturation data, non-specific site, read-out: Kd1
[6] = two binding site model, specific site, read-out: Kd2

Structure (SMILES): CC(C)CCC[C@@H](C)[C@H]1CC[C@H]2[C@@H]3CC=C4C[C@@H](O)CC[C@]4(C)[C@H]3CC[C@]12C [Cholesterol, cholesterol]
- protease-sensitive (protein-associated) specific binding [1]: decreased over time
- protease-resistant (membrane-associated) specific binding [2]: increasingly protease-resistant
- Membrane-Associated [^3H] Ligand [3, 4]: 2.6 ± 0.2 nmoles/mg protein
- Membrane-Associated [^3H] Ligand ([3]; Protease −): 5.2 ± 0.3 nmoles/mg protein
- Membrane-Associated [^3H] Ligand, Specific ([3]; Protease +): 0.0 ± 0.2 nmoles/mg protein
- Membrane-Associated [^3H] Ligand, Specific ([3]; Protease −): 1.5 ± 0.2 nmoles/mg protein
- cholesterol binding relative to progesterone binding ([3]; higher at every time point of the time course): 2-3 fold
- saturability of specific binding [3]: did not appear to be saturable
- His10-PGRMC1 specific binding with proteolyzed membranes [3]: complete loss
- Kd of cholesterol relative to progesterone (fold lower) ([3]; specific site, two binding site model): 15 fold
- ligand bound at saturation/equilibrium in time course [3]: ~2 nmoles/mg protein
- time to reach saturation/equilibrium of binding [3]: approximately the same rate as progesterone
- Kd [3, 5]: 1000 µM
- Q1 ([3]; two binding site model): 9.6 × 10^9 Sites
- Kd [3, 6]: 0.00035 µM

Structure (SMILES): CC(=O)[C@H]1CC[C@H]2[C@@H]3CCC4=CC(=O)CC[C@]4(C)[C@H]3CC[C@]12C [Progesterone, progesterone]
- protease-sensitive (protein-associated) specific binding [1]: essentially all
- protease-resistant (membrane-associated) specific binding [2]: virtually no
- Membrane-Associated [^3H] Ligand [3, 4]: 1.6 ± 0.3 nmoles/mg protein
- Membrane-Associated [^3H] Ligand ([3]; Protease −): 3.1 ± 0.3 nmoles/mg protein
- Membrane-Associated [^3H] Ligand, Specific ([3]; Protease +): 0.0 ± 0.1 nmoles/mg protein
- Membrane-Associated [^3H] Ligand, Specific ([3]; Protease −): 0.7 ± 0.2 nmoles/mg protein
- saturability of specific binding [3]: appeared to be saturable
- His10-PGRMC1 specific binding with proteolyzed membranes [3]: complete loss
- ligand concentration at half-maximal specific binding ([3]; saturation experiment, FIG. 8A): approximately 50 μM
- ligand bound at saturation/equilibrium in time course [3]: approximately 0.5 nmoles/mg protein
- time to reach saturation/equilibrium of binding [3]: 15 to 30 min
- Kd [3, 5]: 1000 µM
- Q1 ([3]; two binding site model): 8.0 × 10^9 Sites
- Q2 ([3]; two binding site model): 19,260 Sites
- Q2 ([3]; two binding site model, listed as progesterone): approximately 20,000 Sites
- Kd [3, 6]: 0.0055 µM and 0.00554 µM
